Read-outs that look alike come from different tables or passages of the source.

The values below come from patent US6960597B2, “Aza-bridged-bicyclic amino acid derivatives as α4 integrin antagonists” (Orth-McNeil Pharmaceutical, Inc., priority 2000, dated 2005).

One test addresses T1, human α4β7 (Homo sapiens, UniProt P13612+P26010).
T1 construct: expressed in transfected cells
T1 sequence (P13612 34-1032): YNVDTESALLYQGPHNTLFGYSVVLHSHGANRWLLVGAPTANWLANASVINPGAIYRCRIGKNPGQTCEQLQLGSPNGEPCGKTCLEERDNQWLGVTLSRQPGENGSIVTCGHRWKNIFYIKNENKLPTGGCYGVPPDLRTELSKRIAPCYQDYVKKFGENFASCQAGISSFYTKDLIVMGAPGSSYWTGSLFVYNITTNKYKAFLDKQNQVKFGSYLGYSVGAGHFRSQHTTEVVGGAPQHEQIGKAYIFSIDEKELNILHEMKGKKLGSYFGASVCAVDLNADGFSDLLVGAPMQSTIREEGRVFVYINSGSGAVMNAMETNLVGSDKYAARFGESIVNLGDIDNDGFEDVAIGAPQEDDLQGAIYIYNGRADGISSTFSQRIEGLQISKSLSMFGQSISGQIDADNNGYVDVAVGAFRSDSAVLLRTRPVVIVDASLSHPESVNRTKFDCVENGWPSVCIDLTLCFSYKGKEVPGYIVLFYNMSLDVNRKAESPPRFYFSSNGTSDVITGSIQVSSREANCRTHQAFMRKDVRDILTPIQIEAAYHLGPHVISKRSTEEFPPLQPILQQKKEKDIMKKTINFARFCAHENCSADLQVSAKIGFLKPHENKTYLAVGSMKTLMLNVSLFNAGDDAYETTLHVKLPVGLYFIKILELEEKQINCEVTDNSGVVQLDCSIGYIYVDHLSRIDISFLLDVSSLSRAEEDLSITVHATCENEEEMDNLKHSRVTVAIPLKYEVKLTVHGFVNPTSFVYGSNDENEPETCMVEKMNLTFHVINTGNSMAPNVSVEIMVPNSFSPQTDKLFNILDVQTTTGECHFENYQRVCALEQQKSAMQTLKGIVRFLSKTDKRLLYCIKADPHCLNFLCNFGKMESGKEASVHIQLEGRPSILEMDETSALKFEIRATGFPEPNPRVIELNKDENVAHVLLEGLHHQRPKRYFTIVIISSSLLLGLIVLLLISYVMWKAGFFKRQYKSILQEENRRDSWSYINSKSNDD
T1 sequence (P26010 20-798): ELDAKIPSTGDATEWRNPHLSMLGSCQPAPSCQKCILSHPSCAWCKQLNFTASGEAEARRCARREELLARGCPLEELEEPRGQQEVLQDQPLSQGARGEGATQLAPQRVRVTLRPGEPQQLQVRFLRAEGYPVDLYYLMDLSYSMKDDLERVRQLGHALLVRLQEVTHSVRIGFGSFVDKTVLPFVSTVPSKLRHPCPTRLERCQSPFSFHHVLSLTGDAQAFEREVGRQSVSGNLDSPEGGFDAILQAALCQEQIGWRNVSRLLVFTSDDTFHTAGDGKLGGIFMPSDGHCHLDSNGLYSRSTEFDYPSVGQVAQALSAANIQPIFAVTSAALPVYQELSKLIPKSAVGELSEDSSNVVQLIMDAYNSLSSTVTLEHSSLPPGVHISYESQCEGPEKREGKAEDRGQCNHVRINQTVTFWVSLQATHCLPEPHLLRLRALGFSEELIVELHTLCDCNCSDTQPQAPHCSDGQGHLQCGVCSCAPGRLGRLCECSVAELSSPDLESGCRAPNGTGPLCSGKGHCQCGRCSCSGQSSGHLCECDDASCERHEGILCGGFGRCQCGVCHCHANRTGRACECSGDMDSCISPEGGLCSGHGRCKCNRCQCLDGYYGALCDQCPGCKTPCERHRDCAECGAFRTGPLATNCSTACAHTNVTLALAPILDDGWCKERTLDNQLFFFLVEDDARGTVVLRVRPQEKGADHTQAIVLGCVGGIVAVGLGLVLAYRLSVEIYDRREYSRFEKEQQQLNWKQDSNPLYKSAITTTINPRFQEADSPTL
Nature of the test: α4β7-K562 Cell Adhesion Assay (α4β7 Mediated Adhesion/VCAM-1). The class given is cell-based. In outline:
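K562 cells stably expressing human α4β7, labelled with 5 μM Calcein AM, adhered for 1 h at room temperature to plates coated with recombinant hVCAM-1 (4.0 μg/mL) in the presence of compound. After washing, cells were lysed in Tris/SDS. Bound cells were read by fluorescence at 485/530 nm.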

The target in the next test is T2, α4β1 integrin receptor (Homo sapiens, UniProt P05556+P13612).
T2 construct: Ramos Cell Adhesion Assay (α4β1 Mediated Adhesion/VCAM-1); endogenous in cells; host or cells: Ramos cells
T2 sequence (P05556 21-798, one chain of several): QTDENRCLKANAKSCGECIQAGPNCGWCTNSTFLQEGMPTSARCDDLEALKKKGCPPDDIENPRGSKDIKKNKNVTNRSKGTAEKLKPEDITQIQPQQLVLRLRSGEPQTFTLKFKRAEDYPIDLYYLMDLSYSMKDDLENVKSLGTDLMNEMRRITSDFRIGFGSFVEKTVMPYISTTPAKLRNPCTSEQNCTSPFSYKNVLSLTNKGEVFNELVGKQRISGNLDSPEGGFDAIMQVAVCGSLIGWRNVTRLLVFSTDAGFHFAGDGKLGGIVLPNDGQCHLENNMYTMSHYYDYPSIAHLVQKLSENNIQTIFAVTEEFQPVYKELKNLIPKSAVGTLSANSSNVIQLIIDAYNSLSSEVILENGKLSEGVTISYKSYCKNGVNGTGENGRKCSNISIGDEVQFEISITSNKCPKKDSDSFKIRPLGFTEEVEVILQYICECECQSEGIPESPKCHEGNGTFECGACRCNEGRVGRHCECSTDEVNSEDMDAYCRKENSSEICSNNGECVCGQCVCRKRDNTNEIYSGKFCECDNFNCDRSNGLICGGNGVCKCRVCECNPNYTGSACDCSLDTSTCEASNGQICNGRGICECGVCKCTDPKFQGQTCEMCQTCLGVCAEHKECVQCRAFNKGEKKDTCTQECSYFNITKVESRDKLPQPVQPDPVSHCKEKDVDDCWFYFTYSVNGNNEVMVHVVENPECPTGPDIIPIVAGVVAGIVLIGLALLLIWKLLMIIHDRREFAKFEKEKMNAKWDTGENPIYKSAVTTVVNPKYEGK
Kind of test: Ramos Cell Adhesion Assay (α4β1 Mediated Adhesion/VCAM-1). The class given is cell-based. In outline: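 Plates coated overnight at 4° C with recombinant hVCAM-1 (4.0 μg/mL, pH 9.0), then blocked with PBS/1% BSA. Ramos cells labelled with 5 μM Calcein AM adhered 1 h at room temperature with compound; after washing, cells were lysed in SDS and fluorescence read at 485/530 nm.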

The target in another test is α4β1 (Homo sapiens, UniProt P05556+P13612). Conditions: cited from earlier work.
α4β1, sequence (P05556 21-798, one chain of several): as above
Test [1] relates to heterotopic heart allograft. Conditions: hyperlipidemic rabbit; cited from earlier work.
Test [2] relates to oxazolone-induced contact hypersensitivity. The following applies: mouse; 6 mg/kg, sc; cited from earlier work.
The mark [3] stands for this setting: Table IV, read-out: Inhibition of Binding of K562 Cells to Immobilized VCAM-1 IC50.
The mark [4] stands for this setting: Table III, read-out: Inhibition of Binding of Ramos Cells to Immobilized VCAM-1 IC50.

What is called IC50 is the concentration that inhibits the measured activity by half. Take `CC(C)C(=O)Nc1ccc(C[C@H](NC(=O)[C@@H]2C3CCC(CC3)N2S(=O)(=O)c2ccccc2)C(=O)O)cc1` [Cpd 69, 4-[(2-methyl-1-oxopropyl)amino]-N-[[(3S)-2-(phenylsulfonyl)-2-azabicyclo[2.2.2]oct-3-yl]carbonyl]-L-phenylalanine]: the IC50 on human α4β7 (setting [3]) came to 1670 nM; at α4β1 integrin receptor (setting [4]) it was 455 nM.

With `O=C(O)[C@H](Cc1ccc(NC(=O)[C@@H]2C3CCC(CC3)N2S(=O)(=O)c2ccccc2)cc1)NC(=O)[C@@H]1C2CCC(CC2)N1S(=O)(=O)c1ccccc1` [Cpd 70, 4-[[[(3S)-2-(phenylsulfonyl)-2-azabicyclo[2.2.2]oct-3-yl]carbonyl]amino]-N-[[(3S)-2-(phenylsulfonyl)-2-azabicyclo[2.2.2]oct-3-yl]carbonyl]-L-phenylalanine], the IC50 on human α4β7 (setting [3]) was found to be 2030 nM; on α4β1 integrin receptor (setting [4]) it was 370 nM.

With `O=C(Nc1ccc(C[C@H](NC(=O)[C@@H]2C3CCC(CC3)N2S(=O)(=O)c2cccs2)C(=O)O)cc1)c1c(Cl)cncc1Cl` [Cpd 71a, 4-[[(3,5-dichloro-4-pyridinyl)carbonyl]amino]-N-[[(3S)-2-(2-thienylsulfonyl)-2-azabicyclo[2.2.2]oct-3-yl]carbonyl]-L-phenylalanine], the IC50 was found to be 33 nM at human α4β7 (Table I, racemic mixtures and resolved (S,S) and (R,S) diastereomers, read-out: Antagonist IC50 Activity α4β7); 6 nM at α4β1 integrin receptor (Table I, racemic mixtures and resolved (S,S) and (R,S) diastereomers, read-out: Antagonist IC50 Activity α4β1); 360 nM on α4β1 integrin receptor (setting [4]).

With Phenylacetyl-Leu-Asp-Phe-D-Pro-NH2, the IC50 on α4β1 was 2000 nM. Also, the “efficacy in heterotopic heart allograft model” value in test [1] is “effective”. Besides, the “efficacy in oxazolone-induced contact hypersensitivity” value in test [2] is on record as “efficacy similar to the α4 antibody PS/2”.
